This note sets out measurements from ChEMBL document CHEMBL1201862, “PubChem BioAssay data set” (2004).

Common to all, as to assay: inhibition of tumour cell growth, NCI panel, 48 h
For experiment [1], the system named is A498.
Experiment [2] has as its system ACHN.
Experiment [3] relates to CCRF-CEM.
Experiment [4] concerns COLO 205.
For experiment [5], the system named is HCC 2998.
In experiment [6] the test system is HT-29.
Experiment [7] deals with IGROV-1.
Experiment [8] deals with OVCAR-8.
Experiment [9] has as its system RXF 393.
Experiment [10] concerns SF-295.
Experiment [11] concerns SK-MEL-2.
Experiment [12] concerns SK-MEL-5.
The subject of experiment [13] is SN12C.
The subject of experiment [14] is SNB-19.
Experiment [15] concerns SW-620.
Experiment [16] deals with UACC-62.
For experiment [17], the system named is UO-31.
Experiment [18] relates to HCT-116.
Experiment [19] deals with HOP-62.
In experiment [20] the test system is NCI-H460.

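Five concentrations, 48 hours, 96-well plates. The concentration for 50% growth inhibition is given as GI50.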 Calls of active or inactive are those of the source. Rule as the data show it: active = GI50 up to about 1.1 µM and inactive = higher.

`O=C(c1ccccc1)c1ccc2n[se]nc2c1`: the GI50 in experiment [1] is 31.8 µM (inactive); in experiment [2], 7.03 µM (inactive); in [3], 17.8 µM (inactive); in experiment [4], 21.1 µM (inactive); in [5], 8.93 µM (inactive); in experiment [6], 6.34 µM (inactive). The GI50 in [7] was 50.6 µM (inactive); in experiment [8], 73.5 µM (inactive); in experiment [9], 40.9 µM (inactive); in experiment [10], 7.4 µM (inactive); in experiment [11] it was > 100 µM (inactive); in [12], 11.8 µM (inactive). Further, the GI50 was 54.7 µM (inactive) in [13]; > 100 µM (inactive) in experiment [14]; 10.3 µM (inactive) in experiment [15]; 8.51 µM (inactive) in experiment [16]; > 100 µM (inactive) in experiment [17].

`COc1cc(-c2cc(=O)c3c(O)c(CC=C(C)C)c(O)cc3o2)ccc1O`: the GI50 in [1] was > 50 µM (inactive); in experiment [2], 19.1 µM (inactive); in experiment [3], 16.8 µM (inactive); in experiment [4], > 50 µM (inactive); in experiment [18] it was 16.2 µM (inactive); in experiment [19], 24.2 µM (inactive). For the same compound, the GI50 was > 50 µM (inactive) in experiment [6]; 24 µM (inactive) in [7]; 19.5 µM (inactive) in [20]; 26.7 µM (inactive) in [8]; 24.4 µM (inactive) in experiment [9]; 12 µM (inactive) in [10]. For the same compound, the GI50 in [11] was 23.6 µM (inactive); in experiment [12], 14.6 µM (inactive); in [13] it was > 50 µM (inactive); in [14], > 50 µM (inactive); in [15], 16.7 µM (inactive); in experiment [16] it was 23 µM (inactive). In [17], the GI50 is 33.5 µM (inactive).

As to `Nc1cccc2c1C1=NNC(=O)CC1C2` (centres undefined), the GI50 in [1] was > 100 µM (inactive); in experiment [3] it was > 100 µM (inactive); in experiment [4], > 100 µM (inactive); in experiment [5] it was > 100 µM (inactive); in experiment [18] it was > 100 µM (inactive); in experiment [19], > 66.5 µM (inactive). Moreover, the GI50 in experiment [7], in [20], in experiment [8], in experiment [9], in experiment [10] and in experiment [11] was > 100 µM (inactive) each time. Moreover, the GI50 in [12], in experiment [13], in experiment [14], in [15], in [16] and in [17] was > 100 µM (inactive) each time.

In the case of `N=C(CSS(=O)(=O)O)NC1CC2CCC1C2` (centres undefined), the GI50 is > 100 µM (inactive) in experiment [1]; > 100 µM (inactive) in experiment [2]; > 100 µM (inactive) in experiment [3]; > 100 µM (inactive) in [4]; > 100 µM (inactive) in experiment [18]; 95.7 µM (inactive) in [19]. Besides, the GI50 was > 100 µM (inactive) in [7]; 43.1 µM (inactive) in [20]; > 100 µM (inactive) in experiment [8]; > 100 µM (inactive) in [9]; 76.7 µM (inactive) in experiment [10]; > 100 µM (inactive) in experiment [11]. The GI50 in experiment [12], in experiment [13], in experiment [14], in [15] and in experiment [16] was > 100 µM (inactive) in each case.

As to `CCOC(=O)CCC(NC(=O)OCc1ccccc1)C(=O)NC(CCC(=O)OCC)C(=O)NNC(=O)OC(C)(C)C` (centres undefined), the GI50 was 38.5 µM (inactive) in [3]; > 100 µM (inactive) in [4]; > 100 µM (inactive) in [5]; > 100 µM (inactive) in experiment [18]; > 100 µM (inactive) in experiment [19]; > 100 µM (inactive) in [7]. Moreover, the GI50 in [20] was > 100 µM (inactive); in experiment [8] it was > 100 µM (inactive); in experiment [9], 18.7 µM (inactive); in experiment [10], > 100 µM (inactive); in [11], > 100 µM (inactive); in experiment [12] it was > 100 µM (inactive). For the same compound, the GI50 in experiment [13], in experiment [14], in experiment [16] and in experiment [17] was > 100 µM (inactive) throughout.

`CC1(C)OP(=O)(c2ccccc2)C=C1Sc1ccc([N+](=O)[O-])cc1[N+](=O)[O-]` (centres undefined): the GI50 in experiment [1] was > 100 µM (inactive); in experiment [2], > 100 µM (inactive); in experiment [4] it was > 100 µM (inactive); in [18], 36.6 µM (inactive); in experiment [19] it was > 100 µM (inactive); in experiment [6], 45.6 µM (inactive). In addition, the GI50 in [7] is > 100 µM (inactive); in experiment [20], > 100 µM (inactive); in experiment [8] it was 62.1 µM (inactive); in experiment [10], 95.9 µM (inactive); in experiment [11] it was > 100 µM (inactive); in [12] it was 42.7 µM (inactive). For the same compound, the GI50 in [13] was 45.9 µM (inactive); in [14], > 100 µM (inactive); in experiment [15] it was 65.5 µM (inactive); in experiment [16], 35 µM (inactive).

As for `CC(=O)Oc1cc2c(cc1OC(C)=O)OCC(c1ccccc1)C2` (centres undefined), the GI50 is 7.05 µM (inactive) in [1]; 4.4 µM (inactive) in [3]; 18.1 µM (inactive) in [4]; 29.1 µM (inactive) in experiment [5]; 27.6 µM (inactive) in experiment [18]; 19.1 µM (inactive) in experiment [19]. In addition, the GI50 was 43.5 µM (inactive) in experiment [6]; 33.8 µM (inactive) in experiment [7]; 20.7 µM (inactive) in experiment [20]; 16.9 µM (inactive) in [8]; 14.4 µM (inactive) in [9]; 16.4 µM (inactive) in experiment [10]. The GI50 in [11] was 27.4 µM (inactive); in [12], 17.3 µM (inactive); in experiment [13], 26.4 µM (inactive); in experiment [14], 15 µM (inactive); in experiment [15], 6.5 µM (inactive); in experiment [16], 19.2 µM (inactive). Further, the GI50 in experiment [17] was 30.2 µM (inactive).

On to `CC(=O)c1c(P(=O)(OC(C)C)OC(C)C)nn(-c2ccc([N+](=O)[O-])cc2)c1C`, for which the GI50 in experiment [1], in experiment [2], in experiment [3], in experiment [4], in experiment [5] and in [18] was > 100 µM (inactive) each time. Further, the GI50 in [19], in [6], in [7], in experiment [20], in experiment [8] and in experiment [10] was > 100 µM (inactive) each time. Moreover, the GI50 in experiment [11], in experiment [12], in experiment [13], in experiment [14], in experiment [15] and in experiment [16] was > 100 µM (inactive) throughout. For the same compound, the GI50 in [17] was > 100 µM (inactive).

For the compound `CCOC(=O)CSc1nc(N)c2c(-c3ccc(OC)c(OC)c3)c3c(nc2n1)CCCC3`, the GI50 in [2] is > 100 µM (inactive); in [3], > 100 µM (inactive); in [4] it was > 100 µM (inactive); in experiment [18] it was > 100 µM (inactive); in experiment [19] it was 39 µM (inactive); in [6], > 100 µM (inactive). Also, the GI50 in experiment [7] was > 100 µM (inactive); in experiment [20], > 100 µM (inactive); in experiment [8], 24.3 µM (inactive); in experiment [9], 49.2 µM (inactive); in experiment [10] it was 24.4 µM (inactive); in [12], > 100 µM (inactive). In addition, the GI50 was > 100 µM (inactive) in experiment [13]; 95.5 µM (inactive) in experiment [14]; > 100 µM (inactive) in experiment [15]; > 100 µM (inactive) in experiment [16]; > 100 µM (inactive) in [17].

Take `O=C1c2cccc3cc4ccccc4c(c23)C(=O)N1CCNCCNCCNCCN1C(=O)c2cccc3cc4ccccc4c(c23)C1=O`: the GI50 in experiment [1] was 0.19 µM (active); in [3], < 0.01 µM (active); in [4] it was < 0.01 µM (active); in [5], < 0.0134 µM (active); in experiment [18], < 0.01 µM (active); in [6] it was < 0.01 µM (active). Further, the GI50 in [7] was < 0.01 µM (active); in experiment [20], < 0.01 µM (active); in experiment [8] it was < 0.01 µM (active); in [9] it was < 0.01 µM (active); in [10] it was < 0.01 µM (active); in experiment [11] it was 0.119 µM (active). Moreover, the GI50 was 0.0243 µM (active) in experiment [12]; < 0.027 µM (active) in experiment [13]; < 0.01 µM (active) in experiment [14]; < 0.01 µM (active) in [15]; < 0.01 µM (active) in experiment [16]; 0.0335 µM (active) in experiment [17].

Turning to `NC(CCP(=O)(O)CCC1C=CC=CC1)C(=O)O` (centres undefined), the GI50 in [2], in experiment [3], in experiment [4], in experiment [5], in [18] and in experiment [6] was > 100 µM (inactive) in each case. The GI50 in experiment [7], in experiment [20], in [8], in experiment [9], in experiment [10] and in experiment [11] was > 100 µM (inactive) each time. In addition, the GI50 in experiment [12], in [13], in [14], in [15], in experiment [16] and in experiment [17] was > 100 µM (inactive) in each case.
